Reference: the SangsterLogP compilation

assay: method code G-GLC, from Larsen, B. R., Skejo-Andreasen, H., & Pérez, A. P. (1992). Octanol-water partition coefficients of 39 polychlorinated biphenyls in an Askarel mixture. Fresenius Envir. Bull. I (Supplementum), S13-18.

| Compound | logP |
| --- | --- |
| Clc1ccc(Cl)c(-c2c(Cl)c(Cl)cc(Cl)c2Cl)c1 | 6.45 |
| Clc1ccc(-c2cccc(Cl)c2Cl)cc1 | 5.63 |
| Clc1cc(Cl)c(-c2cccc(Cl)c2Cl)cc1Cl | 6.28 |
| Clc1ccc(-c2ccc(Cl)c(Cl)c2Cl)cc1 | 5.95 |
| Clc1cc(Cl)c(-c2c(Cl)ccc(Cl)c2Cl)c(Cl)c1Cl | 6.76 |
| Clc1ccc(Cl)c(-c2cc(Cl)ccc2Cl)c1 | 5.81 |
| Clc1ccc(-c2c(Cl)ccc(Cl)c2Cl)cc1Cl | 6.22 |
| Clc1ccc(Cl)c(-c2c(Cl)ccc(Cl)c2Cl)c1 | 6.08 |
| Clc1ccc(-c2ccc(Cl)c(Cl)c2Cl)c(Cl)c1Cl | 6.62 |
| Clc1ccc(Cl)c(-c2ccc(Cl)c(Cl)c2)c1 | 5.99 |
